A word on the IC50: it is the point on the concentration scale where inhibition reaches its midpoint.

≈ marks a conversion by molar mass, not a printed value.

The test system of data set [1] is L 1210 leukemia cells. The experiment in a line: Soft-agar assay, continuous incubation (Hamburger and Salmon). The following applies: Mus musculus, L1210; L 1210, continuous incubation 5 to 7 days; 4 experiments, deviation less than 15%. The data set is classed as cell-based. The protocol:
(§1) The experiment was carried out in accordance with the process of Hamburger and Salmon [New Engl. J. Med. 298, 1321-1327 (1978)]. The medium was replaced by McCoy 5A, and the number of cells was reduced to 5×10^2 cells/plate.
A continuous incubation of the cells with various concentrations of the test substance from Examples 4 and 5 was carried out. The compounds to be tested were applied to the agar plates before plating-out the cell cultures. The cell cultures then grew for 5 to 7 days in the incubator in an atmosphere of 5% of CO2, 20% of O2 and 95% relative atmospheric humidity at 37° C. After this time, the number of cell colonies having a diameter from 60 μm was determined (in %) relative to the number of cell colonies which had grown in comparison without test substance.
(§2) The IC50 value for continuous and 1-hour incubation was determined from the dose/action curve.
(§3) In all cases, the experiments were carried out 4 times. The deviation in the results was less than 15%.

A further data set relates to L 1210 tumor cells. The experiment in a line: Proliferation experiment (MTT, 72 hours). The settings on record: Mus musculus, L1210, L 1210, 72 hours, 4 experiments, deviation less than 15%. The data set is classed as cell-based. The protocol: L 1210 tumor cells at the exponential growth phase (5×10^3 cells/ml, Roswell Park Memorial Institute (RPMI) medium) were incubated in a microtiter plate with […] for a period of 72 hours at 37° C., 5% of CO2 and 95% relative atmospheric humidity and various concentrations of the test substances. After 65 hours, 50 μl of [3-(4,5-dimethylthiazol-2-yl)-2,5-diphenyltetrazolium bromide](MTT) (2.5 mg/ml of MTT in phosphate buffer saline (PBS)) were added. The MTT was reduced by living cells into the red, water-insoluble dyestuff formazan. After a further 7 hours, the supernatant medium was carefully removed. Formazan was dissolved by adding 100 μl of dimethyl sulfoxide per recess and subsequent shaking gently. The extinction of each recess was determined using a Multisan 340 CC photometer (Messrs. Flow) at 492 nm. The results were determined from the extinction ratio of cells with test substance to cells without test substance.
as §3

For data set [2], the system named is L 1210 leukemia cells. Kind of data set: Soft-agar assay, 1-hour incubation (Hamburger and Salmon). The data set is classed as cell-based. The following applies: Mus musculus, L1210; L 1210, 1-hour incubation; 4 experiments, deviation less than 15%. The protocol:
as §1
In the test, the cells were incubated at 37° C. for 1 hour at various concentrations of the test substance. The cells were then washed twice with McCoy 5A solution (Flow catalog, Meckenheim, FRG) and subsequently applied to agar plates in accordance with the method of Hamburger and Salmon. The cells were subsequently cultivated as described above, and the number of cell colonies was determined (evaluation as in a).
as §2, §3

Data set [3] relates to Gram-positive and Gram-negative bacteria. Kind of data set: plate-agar diffusion test in vitro. The data set is classed as cell-based. The following applies: 10 μl/test circle, 6 mm diameter. In general terms: In agar diffusion tests the substance spreads into inoculated agar from a disc or well.
Data set [4] is described as follows: stability in the solid state and as a solution. The data set is classed as physicochemical. The following applies: pH range from 3 to 9, in particular from 5 to 8.
A short description of a further data set: solubility. The data set is classed as physicochemical.
Data set [5] concerns human and animal tumor cells. The experiment in a line: tumor-inhibiting action in vitro. The data set is classed as cell-based.

With `CC(=O)Oc1c(C2CC(OC3CCC(OC(C)=O)C(C)O3)C(OC(C)=O)C(C)O2)ccc2c1C(=O)C1=C(C2=O)C2(OC3CCC(OC(C)=O)C(C)O3)C(=O)CC(C)(O)CC2(O)C=C1` (stereo not shown) [5',4A,4C,8-Tetra-O-acetyl-urdamycin G, 5',4A,4C,8-tetra-O-acetyl urdamycin G], the concentration for half-maximal inhibition (IC50) with L 1210 leukemia cells [1] was 0.036 µg/mL (≈ 0.0408 µM); in the data set with L 1210 tumor cells, less than 1 µg/mL; in the data set with L 1210 leukemia cells [2], 0.065 µg/mL (≈ 0.0736 µM).

In the case of `CC1OC(OC2CC(c3ccc4c(c3O)C(=O)C3=C(C4=O)C4(OC5CCC(O)C(C)O5)C(=O)CC(C)(O)CC4(O)C=C3)OC(C)C2O)CCC1O` (stereo not shown) [Urdamycin G], the IC50 worked out at 0.85 µg/mL (≈ 1.19 µM) in the data set with L 1210 leukemia cells [1] and 3.5 µg/mL (≈ 4.9 µM) with L 1210 tumor cells. In data set [3], the antibacterial action result is “comes into effect both against Gram-positive and Gram-negative bacteria”. In data set [4], the stability result was “stable”. For the same compound, the solubility result is “readily soluble” in “solubility” (methanol, acetone, DMSO, dioxane and chloroform); “not in water and alkanes” in the data set “solubility” (water and alkanes). Besides, the tumor-inhibiting action entry in data set [5] was “tumor-inhibiting action”.

(Values after patent publication US4859655A, “Urdamycin G and derivatives thereof, a process for their preparation and their use” (Hoechst Aktiengesellschaft, priority 1986, dated 1989).)
